Data as given in patent US6869941B2, “Combination of drospirenone and an estrogen sulphamate for HRT” (Schering AG, priority 2001, dated 2005).

Tests used:
Assay type in all cases: physicochemical
[1] = Solubility of drospirenone in water and aqueous buffers; conditions: water and aqueous buffers at various pH values
[2] = Chemical stability of drospirenone under acid and alkaline conditions
[3] = In vitro dissolution, USP XXIII Paddle Method; conditions: micronized form; rapid dissolution defined as at least 70% over about 30 minutes from a 3 mg tablet in 900 ml of water at 37° C., apparatus 2 at 50 rpm

solubility [1]: sparingly soluble | stability under acid conditions ([2]; acid conditions): rearranged to an inactive isomer | stability under alkaline conditions ([2]; alkaline conditions): hydrolysed | dissolution of the active compound from the dosage unit in vitro [3]: rapid dissolution
SMILES: C[C@]12CCC(=O)C=C1[C@@H]1C[C@@H]1[C@H]1[C@@H]3[C@@H]4C[C@@H]4[C@@]4(CCC(=O)O4)[C@@]3(C)CC[C@@H]12 [Drospirenone]
